Reference: patent publication US20150073330A1, “ALZHEIMER'S DISEASE TREATMENT WITH MULTIPLE THERAPEUTIC AGENTS DELIVERED TO THE OLFACTORY REGION THROUGH A SPECIAL DELIVERY CATHETER AND IONTOPHORESIS” (Wedge Therapeutics, LLC, priority 2012, published 2015)
Entries after “also recorded” stand apart in the source; their conditions may differ.

Experiments:
[1] = in vivo; cited from earlier work
[2] = tested on: patients with depression associated with neurodegenerative diseases; test: Intranasal ORE ketamine in patients with depression
[3] = cited from earlier work
[4] = tested on: students taking the comprehensive examination and test; test: ORE insulin in students before the comprehensive examination; type: in vivo, human; settings: 2-4 IU each side of the nose to the ORE, 1-2 hours before the examination, compared to controls
Method: In a study of students taking the comprehensive examination and test, we prescribed 2-4 IU insulin instilled on each sides of the nose delivered to the ORE in supine position, 1-2 hours before the examination using our delivery device. […] We are planning an expanded study and to analyze statistically to report its positive significance and its use in public speakers (T. R. Shantha, use of olfactory mucosal insulin to enhance the memory and recall before student examinations, written tests and before presentations in front of audience at meetings. Expanded study-under preparation.).

[5] = tested on: MCF-7 Human Breast Cancer Cells; settings: MCF-7 cells; cited from earlier work
[6] = tested on: receptors in the hippocampus and the frontal cortex; settings: rodent models, intranasal; cited from earlier work
[7] = tested on: adults with AD and amnestic mild cognitive impairment; settings: cited from earlier work
[8] = cited from earlier work; remark: listed apart in the source
[9] = tested on: patients with impaired cognition, depression, PTSD, stroke, concussion, brain injury; test: ORE delivery of insulin alone or combined in impaired cognition, depression, PTSD, stroke, concussion and brain injury; type: in vivo, human; settings: olfactory mucosal delivery; declining memory in the aged, Parkinson's, depression of many causes
Source text: We also provided the home therapy kit with these therapeutic agents and trained them in the method of delivery to ORE, so that they can administer on their own. Some of the patients received hyperbaric oxygen therapy also.

[10] = cutaneous T-cell lymphoma, 300-400 mg per m^2 per day for eight weeks; cited from earlier work
[11] = tested on: amyloid beta; settings: mice, cited from earlier work
[12] = tested on: patients with Lyme disease, senile type dementia and early Alzheimer's disease; test: 2-4-dinitrophenol in Lyme disease, senile type dementia and early Alzheimer's disease; type: in vivo, human; settings: minuscule dose
Source text: Exactly how production and aggregation of the beta amyloid peptide gives rise to the pathology of AD even now not known. Accumulation of aggregated amyloid fibrils, which are believed to be the toxic form of the protein responsible for disrupting the cell's calcium ion homeostasis, induces programmed cell death (apoptosis). It known that Aβ selectively builds up in the mitochondria in the cells of Alzheimer's-affected brains, and it inhibits certain enzyme functions and the utilization of glucose by neurons (Chen X, Yan S D. 2006. “Mitochondrial Aβ: a potential cause of metabolic dysfunction in Alzheimer's disease”. IUBMB Life 58 (12): 686-94.). […] We had to discontinue the study due to federal restriction on such use that is not FDA approved.

[13] = target: T1, TNF-alpha (Homo sapiens, UniProt P01375); test: Etanercept administration in AD patients by different routes; type: in vivo; settings: compared to perispinal, epispinal or interspinal routes
T1 construct: endogenous in cells; host or cells: AD patients (in vivo)
T1 sequence (P01375 77-233 limits assumed): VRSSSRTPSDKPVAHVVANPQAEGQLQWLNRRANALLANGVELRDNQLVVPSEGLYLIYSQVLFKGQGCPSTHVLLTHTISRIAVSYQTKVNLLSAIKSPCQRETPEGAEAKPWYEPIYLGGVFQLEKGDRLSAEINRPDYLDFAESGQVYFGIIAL
Source text: CNS Drugs 2009; 23 (9): 713-725. Richard C. Chou, Michael A. Kane, Shiva Gautam and Sanjay Ghirmire. Tumor Necrosis Factor Inhibition Reduces the Incidence of Alzheimer's disease in Rheumatoid Arthritis Patients. Abstracts of the American College of Rheumatology, Nov. 8, 2010, Atlanta Ga., Presentation No. 640). […] It is transported to the CNS through the CSF, not by direct spread by cervical vertebral venous system as perceived (Shantha T R and Evans J A: Arachnoid Villi in the Spinal Cord, and Their Relationship to Epidural Anesthesia. Anesthesiology 37:543-557, 1972).

[14] = target: T1, TNF-alpha; settings: AD patients; cited from earlier work

CNC1(c2ccccc2Cl)CCCCC1=O (stereo not shown) [ketamine]
crossing of the blood brain barrier [1]: easily crosses the BBB
depressive condition in early cases ([2]; early cases, especially in dementia): completely ameliorated the depressive condition
depression ([2]; intranasal delivery to the olfactory mucosa, neurodegenerative diseases, cancer, senility, Lyme disease and others): reduced or relieved the depression
hallucinogenic or other ill effect ([2]; micro doses, 500 micrograms through the ORE): no hallucinogenic or other ill effect; also recorded: no hallucinogenic effect
pH of the sterile solution for injection ([3]; equivalent of 50 mg ketamine base per milliliter): 3.5 to 5.5

N[C@@H](Cc1ccc(O)c(O)c1)C(=O)O [levodopa]
share that crosses BBB [1]: 5-10%

insulin
recall from memory during the test [4]: better and more rapid recall from memory
test scores [4]: scored higher in test scores
enhancement of the activity of methotrexate [5]: 10,000 times
time to binding to receptors in the hippocampus and the frontal cortex [6]: ≤ 60 min
story recall and functional status ([7]; 3-week daily intranasal insulin, adults with AD and aMCI): improved delayed story recall and caregiver-rated functional status
memory, attention and functioning ([7]; 21 days olfactory mucosal insulin, early stage AD or mild cognitive impairment, vs placebo): enhanced memory, attention, and functioning compared with placebo
time to increased insulin levels in cerebrospinal fluid (CSF) ([8]; human studies, olfactory mucosal intranasal): ≤ 60 min
effect on blood glucose ([8]; normal adults and patients with Alzheimer's disease): without altering blood glucose
depression, memory and cognition [9]: reduced the depression, improved the memory, and increased cognition

CNC(=O)Oc1ccc2c(c1)[C@]1(C)CCN(C)[C@@H]1N2C [Physostigmine Salicylate]
pH of aqueous solution ([3]; 0.5% aqueous solution): 5.8
solubility in water [3]: soluble in water

C=C(c1ccc(C(=O)O)cc1)c1cc2c(cc1C)C(C)(C)CCC2(C)C [bexarotene]
adverse effects of high dose usage [10]: hypertriglyceridemia, hypercholesterolemia and decreased high-density lipoprotein levels, as well as hypothyroidism
ability to sense and respond to odors ([11]; after bexarotene treatment): improvement in the ability to sense and respond to odors
nest making behavior ([11]; by 72 hours after the bexarotene treatment): began to use paper to make nests

O=[N+]([O-])c1ccc(O)c([N+](=O)[O-])c1 [2-4-dinitrophenol]
complications [12]: without a single complication
pathological changes, memory and cognition ([12]; unpublished data 2004): reduces these pathological changes and improves the memory and cognition

CNC(=O)Oc1ccc2c(c1)[C@]1(C)CCN(C)[C@@H]1N2C [physostigmine]
crossing of the blood brain barrier [1]: can cross the blood-brain barrier

Etanercept
effectiveness of cervical epidural and intranasal ORE delivery [13]: much more effective
cognitive abilities after perispinal administration [14]: improve the cognitive abilities of AD patients
